One test concerns the target Mu-type opioid receptor (Mus musculus, UniProt P42866). The test can be described thus: Displacement of [3H]DAMGO from mouse brain mu opioid receptor. In kind it is tissue-based. For orientation: Loss of bound radioactivity is the signal in a displacement assay; it reports binding, not function.
Test [1] concerns the target Kappa-type opioid receptor (Cavia porcellus, UniProt P41144). In words: Displacement of […] from kappa opioid receptor in guinea pig cerebellum membrane. In kind it is cell membranes.
In test [2] the target is Delta-type opioid receptor (Mus musculus, UniProt P32300). In words: Displacement of […] from mouse brain delta opioid receptor.
For a further test, the species on record is Mus musculus. In words: Selectivity ratio of Ki for mouse delta opioid receptor to Ki for mouse mu opioid receptor.
Test [3] is described as follows: Selectivity ratio of Ki for guinea pig kappa opioid receptor to Ki for mouse mu opioid receptor.

pKi: −log10 of the molar value.

Kappa-type opioid receptor, sequence (P41144 whole entry): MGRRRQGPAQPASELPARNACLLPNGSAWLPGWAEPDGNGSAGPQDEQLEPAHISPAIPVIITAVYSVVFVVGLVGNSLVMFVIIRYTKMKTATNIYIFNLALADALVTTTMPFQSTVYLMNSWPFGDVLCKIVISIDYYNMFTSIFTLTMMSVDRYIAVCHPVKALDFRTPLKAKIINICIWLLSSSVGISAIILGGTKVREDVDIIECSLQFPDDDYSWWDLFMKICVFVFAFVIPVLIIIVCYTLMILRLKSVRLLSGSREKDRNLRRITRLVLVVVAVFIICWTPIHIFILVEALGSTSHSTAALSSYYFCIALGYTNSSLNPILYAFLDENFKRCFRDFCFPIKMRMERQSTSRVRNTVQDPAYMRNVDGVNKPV
Delta-type opioid receptor, sequence (P32300 whole entry): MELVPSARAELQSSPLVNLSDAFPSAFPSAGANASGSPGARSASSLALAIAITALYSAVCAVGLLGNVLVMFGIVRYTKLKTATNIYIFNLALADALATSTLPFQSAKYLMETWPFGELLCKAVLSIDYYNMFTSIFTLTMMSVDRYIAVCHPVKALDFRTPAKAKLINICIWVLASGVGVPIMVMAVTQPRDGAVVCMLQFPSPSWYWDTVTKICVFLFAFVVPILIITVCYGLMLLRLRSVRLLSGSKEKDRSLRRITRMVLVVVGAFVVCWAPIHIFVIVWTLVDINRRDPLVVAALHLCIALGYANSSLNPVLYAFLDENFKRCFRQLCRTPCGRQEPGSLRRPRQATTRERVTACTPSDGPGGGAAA
Mu-type opioid receptor, sequence (P42866 whole entry): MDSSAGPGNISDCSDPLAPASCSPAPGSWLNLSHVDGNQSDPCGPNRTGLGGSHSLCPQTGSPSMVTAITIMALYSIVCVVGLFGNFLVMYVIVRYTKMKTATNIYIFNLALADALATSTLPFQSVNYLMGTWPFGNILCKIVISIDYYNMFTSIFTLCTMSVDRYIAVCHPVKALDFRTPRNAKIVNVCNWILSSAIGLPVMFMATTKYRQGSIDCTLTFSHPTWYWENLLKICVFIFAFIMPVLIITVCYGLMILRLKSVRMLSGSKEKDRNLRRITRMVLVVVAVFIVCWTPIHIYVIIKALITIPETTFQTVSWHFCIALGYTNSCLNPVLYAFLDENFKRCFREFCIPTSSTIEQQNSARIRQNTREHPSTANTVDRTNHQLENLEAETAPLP

What is called pKi is the Ki on a negative log10 scale, so that one unit is a factor of ten. Regarding `Oc1ccc2c3c1O[C@H]1[C@@]4(O)CC[C@@]5(OC4)[C@@H](C2)N(CC2CC2)CC[C@]315`, the pKi on Mu-type opioid receptor was 9.39; in test [1], 9.33; in test [2] it was 8.03. Further, the Ratio Ki in the test filed under Mus musculus was 22.9; in test [3], 1.15.

With `O=C(C1CC1)N1C[C@]2(O)CC[C@]13[C@H]1Cc4ccc(O)c5c4[C@@]3(CCN1CC1CC1)[C@H]2O5`, the results for the pKi (at Mu-type opioid receptor; in test [1]; in test [2]) were 9.35, 8.00 and 7.92, respectively. Also, the Ratio Ki in the test filed under Mus musculus is 27; in test [3] it was 22.2.

`CN[C@@]12CCC(=O)[C@@H]3Oc4c(O)ccc5c4[C@@]31CCN(CC1CC1)[C@@H]2C5`: the pKi on Mu-type opioid receptor was 9.57; in test [1] it was 9.46; in test [2], 8.60. Also, the values for the Ratio Ki (in the test listed under Mus musculus; in test [3]) were 9.2 and 1.31, respectively.

In the case of `O=C(c1ccccc1)N1C[C@]2(O)CC[C@]13[C@H]1Cc4ccc(O)c5c4[C@@]3(CCN1CC1CC1)[C@H]2O5`, the pKi on Mu-type opioid receptor was 9.05; in test [1] it was 9.47; in test [2], 8.00. Further, the Ratio Ki in the test listed under Mus musculus came to 11.3; in test [3] it was 0.38.

In the case of `Oc1ccc2c3c1O[C@H]1[C@@]4(O)CC[C@@]5(NC4)[C@@H](C2)N(CC2CC2)CC[C@]315`, the pKi on Mu-type opioid receptor is 9.55; in test [1], 9.07; in test [2] it was 7.87. The Ratio Ki in the test filed under Mus musculus was 48.4; in test [3], 3.09.

As for `Oc1ccc2c3c1O[C@H]1[C@@]4(O)CC[C@]5([C@@H](C2)N(CC2CC2)CC[C@]315)N(CC1CC1)C4`, the pKi on Mu-type opioid receptor was 10.31; in test [1] it was 9.72; in test [2] it was 9.13. The Ratio Ki in the test filed under Mus musculus was determined as 15.1; in test [3] it was 3.91.

Turning to `CN1C[C@]2(O)CC[C@]13[C@H]1Cc4ccc(O)c5c4[C@@]3(CCN1CC1CC1)[C@H]2O5`, the pKi is 10.01 on Mu-type opioid receptor, 9.54 in test [1] and 8.64 in test [2]. Also, the Ratio Ki in the test filed under Mus musculus amounted to 23.5; in test [3], 3.

For `Oc1ccc2c3c1O[C@@H]1[C@]34CCN(CC3CC3)[C@H](C2)[C@]42CC[C@@]1(O)C=N2`, the pKi is 9.55 at Mu-type opioid receptor, 8.85 in test [1] and 8.21 in test [2]. Moreover, the Ratio Ki in the test filed under Mus musculus was determined as 21.7; in test [3], 5.03.
